This is an account of results in patent US20210186930A1, “Methods of Treating Renal Disease Associated With Chronic Kidney Disease Such as Alport Syndrome” (UNIVERSITY OF MIAMI, priority 2018, published 2021).

The test system of one data set is Col4a3 knockout mice. In words: Renal function and body weight in Col4a3 knockout mice treated with ezetimibe (FIG. 3). It counts as in vivo, mouse. As for the experimental part:
Mouse models: Mice in which exon 5 of a3 chain of collagen type IV is deleted (Col4a3 KO) were obtained from the Jackson Laboratory (#002908, 129-Col4a3tm1Dec/J). Col4a3 heterozygous littermates were bred to generate Col4a3 KO mice. Four groups of mice with n=3-10 per group were studied. The four groups consisted of: 1) wildtype controls+vehicle, 2) wildtype controls+ezetimibe, 3) Col4a3 KO+vehicle, 4) Col4a3 KO+ezetimibe. ezetimibe was administered by oral gavage daily starting at 4 weeks of age at a concentration of 5 mg/kg body weight. […] Mice were sacrificed at 8 weeks of age when progression to end-stage renal failure had occurred.
Albumin/creatinine ratio: All albuminuria values are expressed as μg albumin/mg creatinine. Albumin/creatinine determined by ELISA (Bethyl Laboratories) for albumin detection and a biochemical assay based on the Jaffe method for creatinine detection (Stanbio) as previously described.
Serology: Immediately prior to sacrifice, a blood sample was collected for the determination of BUN and lipid panel analysis in the comparative laboratory core facility of the University of Miami. Serum creatinine was determined by tandem mass spectrometry (UAB-UCSD O'Brien Core Center, University of Alabama).

Data set [1] concerns Col4a3−/− mice. The experiment in a line: Renal function in Col4a3-/- mice treated with ezetimibe, ramipril or both (Example 1, FIG. 5). It counts as in vivo, mouse. The following applies: vs untreated Col4a3−/−. The source says: Albumin/creatinine ratio: All albuminuria values are expressed as μg albumin/mg creatinine. Albumin/creatinine determined by ELISA (Bethyl Laboratories) for albumin detection and a biochemical assay based on the Jaffe method for creatinine detection (Stanbio) as previously described. Serology: Immediately prior to sacrifice, a blood sample was collected for the determination of BUN and lipid panel analysis in the comparative laboratory core facility of the University of Miami. Serum creatinine was determined by tandem mass spectrometry (UAB-UCSD O'Brien Core Center, University of Alabama). The following experiment was performed to investigate which treatment, ezetimibe (EZ), ramipril (Ramp) or the combination of both drugs (EZ+Ramp), would best preserve renal function in Col4a3 knockout mice, all drugs were administered to 4-week-old Col4a3−/− mice for 4 weeks as follows: ezetimibe (Ez) was orally administered at a concentration of 5 mg/kg BW, ramipril was added to the drinking water at a concentration that would lead to a daily ramipril uptake of 10 mg/kg BW. All mice were sacrificed at 8 weeks of age. The following four groups of mice were analyzed: Col4a3^+/+, Col4a3^−/−+Ez, Col4a3^−/−+Ramp and Col4a3^−/−+Ez+Ramp.

Data set [2] has as its system Col4a3−/− mice. The experiment in a line: Mesangial expansion (PAS) and renal fibrosis (Picrosirius Red) in Col4a3-/- mice (Example 3, FIG. 6). It counts as in vivo, mouse. The following applies: treated vs untreated Col4a3−/− mice; ezetimibe 5 mg/kg, ramipril 10 mg/kg, 4 weeks. On the procedure:
Assessment of mesangial expansion: Periodic acid-Schiff (PAS) staining of 4 μm-thick tissue sections was performed using a standard protocol. Twenty glomeruli per section were analyzed for mesangial expansion by semi quantitative analysis (scale 0-4) performed by two blinded independent investigators.
Picrosirius red staining: Paraffin-embedded sections (4 μm thick) were deparaffinized with xylene and a graded alcohol series. Sections were rinsed for 5 min in distilled water, stained for 1 hour with picrosirius red in saturated aqueous picric acid, examined under a light microscope and photomicrographs were taken. Histological images were visualized using a light microscope (Olympus BX 41, Tokyo, Japan) at 40× magnification and analyzed using Image J software.
The following experiment was performed to investigate which treatment, ezetimibe (EZ), ramipril (Ramp) or the combination of both drugs (EZ+Ramp), would best preserve renal function in Col4a3 knockout mice, all drugs were administered to 4-week-old Col4a3−/− mice for 4 weeks as follows: ezetimibe (Ez) was orally administered at a concentration of 5 mg/kg BW, ramipril was added to the drinking water at a concentration that would lead to a daily ramipril uptake of 10 mg/kg BW. All mice were sacrificed at 8 weeks of age. The following four groups of mice were analyzed: Col4a3^+/+, Col4a3^−/−+Ez, Col4a3^−/−+Ramp and Col4a3^−/−+Ez+Ramp.
PAS staining was performed to detect and quantify mesangial expansion, Picrossirius Red staining to detect and quantify renal fibrosis in treated compared to untreated Col4a3^−/− mice. […] Representative images for PAS staining are shown in FIG. 6A and of Picrosirius Red staining to detect fibrosis in […]. Bar graph quantifications for both are shown in FIGS. 6C and 6D, respectively.

For data set [3] the following is noted: cited from earlier work.
For data set [4] the following is noted: ambient temperature; cited from earlier work.
[5] abbreviates: ezetimibe 5 mg/kg oral gavage daily, sacrifice at 8 weeks.
Setting [6] is: Col4a3−/− mice treated 4 weeks, ezetimibe 5 mg/kg, ramipril 10 mg/kg.

“Also recorded” adds a separate entry of the source.

`O=C1[C@H](CC[C@H](O)c2ccc(F)cc2)[C@@H](c2ccc(O)cc2)N1c1ccc(F)cc1` [ezetimibe]: the body weight entry with Col4a3 knockout mice (ezetimibe 5 mg/kg oral gavage daily) is recorded as “prevents body weight loss”. In the data set on Col4a3 knockout mice (ezetimibe 5 mg/kg oral gavage daily from 4 weeks of age, vs untreated Col4a3 knockout mice), the albumin/creatinine ratio entry is “significant reduction in the albumin/creatinine ratio”. In the data set on Col4a3 knockout mice (setting [5]), the “serum BUN levels” value was “prevents increases in serum BUN levels” and the serum creatinine levels entry was “significantly reduces serum creatinine levels”. Further, the “albumin/creatinine ratio (ACR)” value with Col4a3−/− mice [1] (4-week-old Col4a3−/− mice treated 4 weeks, ezetimibe 5 mg/kg BW oral, ramipril 10 mg/kg BW in drinking water) is “significant reduction in the albumin/creatinine ratio; also recorded: significant decrease in the albumin/creatinine ratio”. Further, in the data set with Col4a3−/− mice [1] (setting [6]), the “serum BUN levels” value is given as “significant reduction in the serum BUN levels” and the serum creatinine levels result was “significant reduction in the serum creatinine levels”. Besides, in the data set with Col4a3−/− mice [2], the “mesangial expansion (PAS staining, score)” value is listed as “significant reduction; also recorded: significantly reduced mesangial expansion” and the “renal fibrosis (Picrosirius Red staining)” value is “significant reduction; also recorded: significantly reduced”. Further, in data set [3], the “solubility in ethanol, methanol, and acetone” value is recorded as “freely to very soluble”; the solubility in water result is “practically insoluble”. In addition, the stability result in data set [4] is on record as “stable”.
